Data as given in article PMC7766155, “Improved Stability and Activity of a Marine Peptide-N6NH2 against Edwardsiella tarda and Its Preliminary Application in Fish” (Marine Drugs, 2020).
Several values for one entry are separate records, joined by “and”; a condition that tells them apart may be missing. Identical values can stand only once. Like-named read-outs stand apart in the source and are kept apart here. Where a SMILES comes first, the peptide text is derived from it. Bridges are numbered along the chain shown (N, C = ends).

What was measured:
E. tarda [1] = assay: Time-kill curves; assay type: cell-based, Edwardsiella tarda; conditions: 10^5 CFU/mL, 28 °C, 200 rpm, plate count every 2 h
Protocol: Time–kill curves for N6 and N6NH2 were determined against E. tarda. In brief, the mid-log phase bacterial cells (10^5 CFU/mL) were mixed with different concentrations of peptides (1 × and 2 × and 4 × MIC) and cultured at 28 °C (200 rpm). Samples of 100 μL were taken from the mixture at intervals of 2 h, continuously diluted, and counted on the plate.

E. tarda [2] = assay: pH stability (residual antibacterial activity, inhibition zone); assay type: physicochemical, Edwardsiella tarda; conditions: pH values of 2–10, 3 h incubation; N6 128 μg/mL, norfloxacin 10 μg/mL; inhibition zone method vs E. tarda
Protocol: To evaluate the thermal stability of peptides, N6 and N6NH2 were incubated for 1 h at 4, 20, 40, 60, 80 and 100 °C. To measure the pH stability, peptides were incubated for 3 h in 100 mM glycine-HCl buffer (pH 2.0), sodium acetate buffer (pH 4.0), sodium phosphate buffer (pH 6.0), Tris-HCl buffer (pH 8.0) or glycine-NaOH buffer (pH 10.0). In addition, peptides were incubated for 4 h at 37 °C in pepsin (3,000 U/mg, pH 2.0) and trypsin (250 U/mg, pH 8.0) (10:1, w/w) solutions, respectively. […] After treatment, 30 μL of solutions were taken out to determine the antibacterial activity of peptides against E. tarda by the inhibition zone method. The untreated peptides were used as the control. All tests were conducted in triplicate.

E. tarda genomic DNA = assay: Competitive binding of genomic DNA with ethidium bromide; design: species or system Edwardsiella tarda; conditions: peptide 160 μg/mL added to DNA (10 μg)-EB; 30 min at 37 °C
Protocol: E. tarda genomic DNA was dissolved in TE buffer to a concentration of 100 μg/mL; 1.5 μL of EB (100 μg/mL) solution was mixed with 100 μL of DNA solution and then added into 96-well plates. The DNA-EB mixture was incubated in the dark at 37 °C for 10 min. Varying concentrations of peptides (0, 40, 80, and 160 μg/mL, 100 μL) were then added to the DNA-EB solution (100 μL), and the fluorescence spectra were measured for each test solution after 30 min of incubation at 37 °C in the dark. Infinite M200 PRO was used for sample determination at 535 nm, and the spectra were recorded from 550 to 750 nm.
To determine the competitive binding of EB against peptides with bacterial DNA, 100 μL of DNA (50 μg/mL) solution was mixed with 100 μL of peptide solution (80 μg/mL) and incubated at 37 °C for 10 min. Then aliquots of stock solution of EB (0, 25, 50, and 100 μg/mL, 1.5 μL) were added to the fixed DNA-peptide solution and incubated for 30 min at 37 °C in the dark. The fluorescence spectra were measured as described above.

[3] = LPS binding, BODIPY-TR-cadaverine displacement; design: species or system E. coli; conditions: 0.5 µM LPS, 5 μM BC, Tris buffer pH 7.4; 0.049 μM to 50 μM; excitation/emission 580/620 nm
E. tarda cells = assay: TEM ultrastructure; assay type: cell-based, Edwardsiella tarda; conditions: 4 × MIC for 2 h, 1 × 10^8 CFU/mL
Protocol: Mid-log phase E. tarda cells (1 × 10^8 CFU/mL) were incubated with 4 × MIC N6 or N6NH2 for 2 h at 37 °C. The bacterial cells were then centrifuged, washed three times with 0.1 M PBS (pH 7.2) and fixed overnight at 4 °C with 2.5% glutaraldehyde. After washing twice with PBS, the cells were post-fixed with 1% osmium tetroxide (OsO4) for 2 h, dehydrated in a graded ethanol series (from 50% to 100%) for 15 min each time and dried by CO2. The cell samples were sputtered with gold-palladium and observed on a QUANTA200 electron microscopy (FEI, Philips, The Netherlands).
The bacterial cells were treated with peptides as described above, fixed with 2.5% glutaraldehyde at 4 °C overnight and post-fixed with 1% OsO4 for 1 h. After washing three times with PBS, the cells were dehydrated with a graded acetone series (50%, 70%, 85%, 95% and 100%, for 7 min each time) and immersed in mixtures of acetone and resin (3:1, 1:1 and 1:3, 40 min each time). The samples were infiltrated with a pure epoxy resin overnight, embedded in capsules containing embedding medium and polymerized at 45 °C for 3 h and at 65 °C for 24 h, respectively. Thin sections were cut using an ultramicrotome, stained with 1% uranyl acetate and examined by a JEM1400 (JEDL, Tokyo, Japan).

Staphylococcus hyicus = assay: microbe, parasite or virus in culture; assay type: cell-based
Protocol: All tests were conducted in triplicate.

E. coli CVCCO157 = conditions: broth microdilution, MHB, 1 × 10^5 CFU/mL, 37 °C 18–24 h, n = 3; some N6 data from ref 19
[4] = test system: Salmonella typhimurium CVCC533
[5] = test system: Staphylococcus aureus ATCC43300
[6] = broth microdilution, MHB, 1 × 10^5 CFU/mL, 37 °C 18–24 h, n = 3, some N6 data from ref 19

SMILES: CC(C)[C@@H]1NC(=O)CNC(=O)[C@H](CC(N)=O)NC(=O)[C@H](CCCNC(=N)N)NC(=O)[C@H](Cc2ccc(O)cc2)NC(=O)[C@H](C(C)C)NC(=O)[C@@H](NC(=O)[C@@H](NC(=O)[C@H](CC(N)=O)NC(=O)[C@H](Cc2c[nH]c3ccccc23)NC(=O)[C@H](C)NC(=O)[C@H](Cc2ccccc2)NC(=O)CN)C(C)C)CSSC[C@@H](C(=O)N[C@@H](Cc2c[nH]cn2)C(=O)N[C@@H](CCCNC(=N)N)C(=O)N[C@@H](CCCNC(=N)N)C(=O)N[C@@H](C)C(=O)N[C@@H](CC(N)=O)C(=O)O)NC(=O)[C@H](C(C)C)NC(=O)[C@H](CCCNC(=N)N)NC1=O [Peptide N6] (H-GFAWNVCVYRNGVRVCHRRAN-OH; disulfide 7-16; N-terminus assumed)
- time at which bacteria were killed (time-kill curve) (E. tarda [1]; 2 × MIC): ≤ 2 h
- time at which bacteria were killed (time-kill curve) (E. tarda [1]; 4 × MIC): ≤ 2 h
- antibacterial activity at different pH values (E. tarda [2]): strong antibacterial activity
- competition with EB for binding to E. tarda genomic DNA (quenching of DNA-EB fluorescence) (E. tarda genomic DNA): the binding affinity of N6 was stronger than that of N6NH2
- binding to LPS (displacement of BC probe) [3]: potent LPS-binding affinity
- abnormal cells (TEM) (E. tarda cells): over 95%
- MIC (Staphylococcus hyicus): 16 to 64 µg/mL
- MIC (Aeromonas veronii): 2.58 µM
- MIC (Aeromonas veronii; [6]): 6.4 µg/mL
- MIC (Escherichia coli CVCC195; CVCC195): 0.2 µM
- MIC (Escherichia coli CVCC195; [6]): 0.5 µg/mL
- MIC (E. coli CVCC1515; CVCC1515): 0.4 µM
- MIC (E. coli CVCC1515; [6]): 1 µg/mL
- MIC (E. coli CVCCO157): 0.5 μg/mL and 0.2 μM
- MIC [4, 6]: 1 µg/mL
- MIC ([4]; murium CVCC533): 0.4 µM
- MIC (S. typhimurium ATCC14028; ATCC14028): 0.8 µM
- MIC (S. typhimurium ATCC14028; [6]): 2 µg/mL
- MIC (S. enteritidis CVCC3377; CVCC3377): 0.1 µM
- MIC (S. enteritidis CVCC3377; [6]): 0.25 µg/mL
- MIC ([5]; ATCC43300): 6.46 µM
- MIC [5, 6]: 16 µg/mL
- MIC (S. aureus ATCC546; ATCC546): 1.62 µM
- MIC (S. aureus ATCC546; [6]): 4 µg/mL
- MIC (S. aureus ATCC25923; ATCC25923): 0.1 µM
- MIC (S. aureus ATCC25923; [6]): 0.25 µg/mL
- MIC (S. hyicus 437-2): 25.8 µM
- MIC (S. hyicus 437-2; [6]): 64 µg/mL
